Legend:
Fas [1] = test: Inhibition of Fas expression on Jurkat cells by cycloheximide; format: cell-based, human; conditions: Jurkat cells, 0.1 μg/ml cycloheximide
Protocol: (§1) Fas and FasL expression were measured by flow cytometry using anti-Fas FITC-conjugated monoclonal antibodies and anti-FasL PE-conjugated monoclonal antibodies in a FACScalibur Flow Cytometer (Becton Dickinson, San Jose, Calif., USA) using the CELLQuest program (Becton Dickinson).
(§2) Results are expressed as percentage (%) increase in the expression of Fas and of FasL measured on treated cells compared to control cells.
Jurkat human leukemia T cells were pre-incubated with 0.0 μg/ml (−CHX) or with 0.1 μg/ml of cycloheximide (+CHX) for 1 h. Ten μg/ml or 100 μg/ml of 6 base SEQ ID NO:5 (GGGTGG) was added to both the −CHX and +CHX cells and the incubation was continued for 24 hours and for 48 hours (Table 10).

FasL [2] = test: FasL expression at the cell surface by flow cytometry, LNCaP cells; format: cell-based, human; conditions: LNCaP prostate cancer cells, 100 μg/ml sequence, 48 h, treated vs control cells
Protocol: (§3) Cancer cells and PBMCs were seeded in 6 well flat-bottom microplates and were maintained at 37° C. in a 5% CO2 atmosphere. Unless stated otherwise, 2×10^5 cells/ml were incubated for 48 h with 0 μg/ml (control) or 100 μg/ml ([…]) (treated) of the sequences.
as §1, §2
(§4) LNCaP prostate cancer cells are a TGF-beta 1 receptor negative, […], metastatic human solid tumor model.

Fas [3] = test: Fas expression at the cell surface by flow cytometry, LNCaP cells; format: cell-based, human; conditions: LNCaP prostate cancer cells, 100 μg/ml sequence, 48 h, treated vs control cells
Protocol: as §3, §1, §2, §4

Fas [4] = test: Fas expression at the cell surface by flow cytometry, Jurkat cells; format: cell-based; conditions: Jurkat human leukemia T cells, 100 μg/ml sequence, 48 h, treated vs control cells
Protocol: as §3, §1, §2
(§5) Jurkat human leukemia T cells are an atypical multi-drug resistant human suspension tumor cell model.

FasL [5] = test: FasL expression at the cell surface by flow cytometry, PBMCs; format: cell-based, human; conditions: 100 μg/ml sequence, 48 h, treated vs control cells
Protocol: (§6) Peripheral blood mononuclear cells (hereinafter, “PBMCs”) were isolated from human blood by Ficoll-Hypaque (Amersham Pharmacia Biotech, Baie d'Urfée, Québec, Canada) density gradient centrifugation.
as §3, §1, §2

EAE = EAE in (SJL/J×PL/J) F1 mice induced with myelin basic protein; format: in vivo
Protocol: Female (SJL/J×PL/J) F1 mice are injected subcutaneously in both femoral regions with an emulsion containing 0.5 mg of myelin basic protein (MBP) mixed with complete Freund's adjuvant. After 24 h, 400 ng of Bordetella pertussis toxin is administered intraperitoneally. On the day of onset (day 0), group 1 mice receive saline, group 2 mice receive 1, 10 or 100 mg/kg of SEQ. ID NO:5, group 3 mice receive 1, 10 or 100 mg/kg of SEQ. ID NO:16, group 4 mice receive 1, 10 or 100 mg/kg of SEQ. ID NO:17, group 5 mice receive 1, 10 or 100 mg/kg of SEQ. ID NO: 18, group 6 mice receive anti-Fas antibodies, group 7 mice receive 1, 10 or 100 mg/kg of SEQ. ID NO:5 +anti-Fas antibodies, group 8 mice receive 1, 10 or 100 mg/kg of SEQ. ID NO:16 +anti-Fas antibodies, group 9 receive 1, 10 or 100 mg/kg of SEQ. ID NO:17 +anti-Fas antibodies, group 10 mice receive 1, 10 or 100 mg/kg of SEQ. ID NO: 18 +anti-Fas antibodies for 3 days by intracistemal administration (20 μg/day). In these different groups, anti-Fas antibodies are administered at any dose in the range of about 0.003 to about 0.3 mg/kg. […] The efficacy of the SEQ. ID NO:5, the SEQ. ID NO: 16 and the SEQ. ID NO: 17 is dose-dependent.

Fas [6] = test: Fas expression at the cell surface by flow cytometry, OVCAR-3 cells; format: cell-based, human; conditions: OVCAR-3 ovarian cancer cells, 100 μg/ml sequence, 48 h, treated vs control cells
Protocol: as §3, §1, §2
(§7) OVCAR-3 ovarian cancer cells are a p53 mutated, p21/waf-1/Cip deleted, metastatic human solid tumor model.

FasL [7] = test: FasL expression at the cell surface by flow cytometry, OVCAR-3 cells; format: cell-based, human; conditions: OVCAR-3 ovarian cancer cells, 100 μg/ml sequence, 48 h, treated vs control cells
Protocol: as §3, §1, §2, §7

FasL [8] = test: FasL expression at the cell surface by flow cytometry, T-24 cells; format: cell-based, human; conditions: T-24 bladder cancer cells, 100 μg/ml sequence, 48 h, treated vs control cells
Protocol: as §3, §1, §2
(§8) T-24 bladder cancer cells are a p53 mutated human cell line T-24 cells (1.0×10^5 cells/ml) were incubated with the 6 base sequences shown in Table 4.

FasL [9] = test: FasL expression at the cell surface by flow cytometry, SK-OV-3 cells; format: cell-based, human; conditions: SK-OV-3 ovarian cancer cells, 100 μg/ml sequence, 48 h, treated vs control cells
Protocol: as §3, §1, §2
(§9) SK-OV-3 ovarian cancer cells are a p53 mutated, p21/waf-1/Cip deleted, p15^ink4B,p16^ink4 deleted metastatic human solid tumor model.

Fas [10] = test: Fas expression at the cell surface by flow cytometry, UMUC-3 cells; format: cell-based, human; conditions: UMUC-3 bladder cancer cells, 100 μg/ml sequence, 48 h, treated vs control cells
Protocol: as §3, §1, §2
(§10) UMUC-3 bladder cancer cells are a P-glycoprotein overexpressing human cell line.

Fas [11] = test: Fas expression at the cell surface by flow cytometry, SK-OV-3 cells; format: cell-based, human; conditions: SK-OV-3 ovarian cancer cells, 100 μg/ml sequence, 48 h, treated vs control cells
Protocol: as §3, §1, §2, §9

Fas [12] = test: Fas expression at the cell surface by flow cytometry, PBMCs; format: cell-based, human; conditions: 100 μg/ml sequence, 48 h, treated vs control cells
Protocol: as §6, §3, §1, §2

FasL [13] = test: FasL expression at the cell surface by flow cytometry, Jurkat cells; format: cell-based; conditions: Jurkat human leukemia T cells, 100 μg/ml sequence, 48 h, treated vs control cells
Protocol: as §3, §1, §2, §5

[14] = test system: EL-4 murine T lymphoma cells; test: EL-4 murine T lymphoma implanted in C57/BL6 lpr/lpr mice; format: in vivo
Protocol: EL-4 murine T lymphoma cells are implanted into C57/BL6 lpr/lpr (Fas negative mice). The mice are divided into 30 groups of 10 mice. On day 0, group 1 mice receive saline, group 2 mice receive 1, 10 or 100 mg/kg of SEQ. ID NO:5, group 3 mice receive 1, 10 or 100 mg/kg of SEQ. ID NO:16, group 4 receive 1, 10 or 100 mg/kg of SEQ. ID NO:17, group 5 mice receive 1, 10 or 100 mg/kg of SEQ. ID NO: 18, group 6 mice receive anti-Fas antibodies, group 7 mice receive 1, 10 or 100 mg/kg of SEQ. ID NO:5 +anti-Fas antibodies, group 8 mice receive 1, 10 or 100 mg/kg of SEQ. ID NO: 16 +anti-Fas antibodies, group 9 receive 1, 10 or 100 mg/kg of SEQ. ID NO:17 +anti-Fas antibodies, group 10 mice receive 1, 10 or 100 mg/kg of SEQ. ID NO:18 +anti-Fas antibodies. In these different groups, anti-Fas antibodies are administered at any dose in the range of about 0.003 to about 0.3 mg/kg. […] The efficacy of the SEQ. ID NO:5, the SEQ. ID NO: 16 and the SEQ. ID NO: 17 is dose-dependent.

FasL [15] = test: FasL expression at the cell surface by flow cytometry, MCF-7 cells; format: cell-based, human; conditions: MCF-7 breast cancer cells, 100 μg/ml sequence, 48 h, treated vs control cells
Protocol: as §3, §1, §2
(§11) MCF-7 human breast cancer cells are a caspase-3 negative, estrogen-dependent human solid tumor model.

Fas [16] = test: Fas expression at the cell surface by flow cytometry, T-24 cells; format: cell-based, human; conditions: T-24 bladder cancer cells, 100 μg/ml sequence, 48 h, treated vs control cells
Protocol: as §3, §1, §2, §8

Fas [17] = test: Fas expression at the cell surface by flow cytometry, MCF-7 cells; format: cell-based, human; conditions: MCF-7 breast cancer cells, 100 μg/ml sequence, 48 h, treated vs control cells
Protocol: as §3, §1, §2, §11

FasL [18] = test: FasL expression at the cell surface by flow cytometry, UMUC-3 cells; format: cell-based, human; conditions: UMUC-3 bladder cancer cells, 100 μg/ml sequence, 48 h, treated vs control cells
Protocol: as §3, §1, §2, §10

C[C@@H]1C[C@@H]([C@H](O)CC2CC(=O)NC(=O)C2)C(=O)[C@@H](C)C1 [cycloheximide, reference compound]
decrease of Fas expression by cycloheximide (Fas [1]; with 10 μg/ml of SEQ ID NO:5, after 24 h): 92%
decrease of Fas expression by cycloheximide (Fas [1]; with 10 μg/ml of SEQ ID NO:5, after 48 h): 44%
decrease of Fas expression by cycloheximide (Fas [1]; with 100 μg/ml of SEQ ID NO:5, after 24 h): 65%
decrease of Fas expression by cycloheximide (Fas [1]; with 100 μg/ml of SEQ ID NO:5, after 48 h): 23%

GGGAGG [SEQ ID NO:17]
% INCREASE FasL (FasL [2]): 55%
% INCREASE Fas (Fas [3]): 48%
% INCREASE Fas (Fas [4]): 77%
% INCREASE FasL (FasL [5]): 356%
efficacy, dose dependence (EAE; 1, 10 or 100 mg/kg): dose-dependent
progression of EAE (EAE; sequence 1, 10 or 100 mg/kg + anti-Fas antibodies, for 3 days): least progression of EAE
% INCREASE Fas (Fas [6]): 49%
% INCREASE FasL (FasL [7]): 59%
% INCREASE FasL (FasL [8]): 75%
% INCREASE FasL (FasL [9]): −16%
% INCREASE Fas (Fas [10]): 39%
% INCREASE Fas (Fas [11]): −6%
% INCREASE Fas (Fas [12]): 266%
% INCREASE FasL (FasL [13]): 91%
efficacy, dose dependence ([14]; 1, 10 or 100 mg/kg): dose-dependent
tumor mass ([14]; sequence 1, 10 or 100 mg/kg + anti-Fas antibodies, vs all other groups): least tumor mass
tumor mass ([14]; single agent (sequence 1, 10 or 100 mg/kg, or anti-Fas antibodies) vs group 1 (saline)): less tumor mass
% INCREASE FasL (FasL [15]): 194%
% INCREASE Fas (Fas [16]): 124%
% INCREASE Fas (Fas [17]): 127%
% INCREASE FasL (FasL [18]): 106%

Reference: US20020091095A1, “Modulation of Fas and FasL expression” (priority 1999, published 2002)
